Legend:
Test in all cases: relative viability (nuclei count vs DMSO), 5 days (fraction); higher = more cells survive
[1] = compound: C=CC(=O)Nc1cc(-n2c(=O)ccc3cnc4ccc(-c5ccc(NS(C)(=O)=O)cc5)cc4c32)ccc1C [BMX-IN-1] + Cc1cc(Nc2cc(N3CCN(C)CC3)nc(Sc3ccc(NC(=O)C4CC4)cc3)n2)n[nH]1 [Tozasertib] (partner 0.1 µM)
Method in brief: (§1)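 Dosing by pin tool came one day after lung cancer cell lines were seeded in 1536-well plates, using either one drug or a fixed anchor-drug dose plus five library-drug doses (not always all listed) in √10 steps. After 5 days, nuclei were counted on 4× images. Relative viability is treated-well nuclei count divided by vehicle-well nuclei count, and values are medians of duplicate plates.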

[2] = compound: C=CCc1cccc(/C=N/NC(=O)CN2CCN(Cc3ccccc3)CC2)c1O [PAC-1] + Nc1ncn([C@H]2C[C@H](O)[C@@H](CO)O2)c(=O)n1 [Decitabine] (partner 2 µM)
Method in brief: as §1

[3] = compound: C=CCc1cccc(/C=N/NC(=O)CN2CCN(Cc3ccccc3)CC2)c1O [PAC-1] + CC(=O)c1c(C)c2cnc(Nc3ccc(N4CCNCC4)cn3)nc2n(C2CCCC2)c1=O [Palbociclib] (partner 0.5 µM)
Method in brief: as §1

[4] = compound: C=CCc1cccc(/C=N/NC(=O)CN2CCN(Cc3ccccc3)CC2)c1O [PAC-1] + Cc1nc(NC(=O)N2CCC[C@H]2C(N)=O)sc1-c1ccnc(C(C)(C)C(F)(F)F)c1 [Alpelisib] (partner 2 µM)
Method in brief: as §1

[5] = compound: C=CC(=O)Nc1cc(-n2c(=O)ccc3cnc4ccc(-c5ccc(NS(C)(=O)=O)cc5)cc4c32)ccc1C [BMX-IN-1] + CC1(C)CCC(c2ccc(Cl)cc2)=C(CN2CCN(c3ccc(C(=O)NS(=O)(=O)c4ccc(N[C@H](CCN5CCOCC5)CSc5ccccc5)c(S(=O)(=O)C(F)(F)F)c4)cc3)CC2)C1 [Navitoclax] (partner 0.5 µM)
Method in brief: as §1

Cell Line	relative viability ([1]; first compound 0.02 µM)	relative viability ([1]; first compound 0.2 µM)	relative viability ([1]; first compound 0.6325 µM)	relative viability ([1]; first compound 2 µM)	relative viability ([2]; first compound 0.02 µM)	relative viability ([2]; first compound 0.06325 µM)	relative viability ([2]; first compound 2 µM)	relative viability ([3]; first compound 0.02 µM)	relative viability ([3]; first compound 0.06325 µM)	relative viability ([3]; first compound 2 µM)	relative viability ([4]; first compound 0.06325 µM)	relative viability ([4]; first compound 0.2 µM)	relative viability ([4]; first compound 2 µM)	relative viability ([5]; first compound 0.02 µM)	relative viability ([5]; first compound 0.2 µM)	relative viability ([5]; first compound 0.6325 µM)	relative viability ([5]; first compound 2 µM)	relative viability ([2]; first compound 0.2 µM)	relative viability ([3]; first compound 0.2 µM)	relative viability ([4]; first compound 0.02 µM)
LCLC-97TM1	0.203	0.274	0.289	0.203	0.229	0.215	0.261	0.211	0.274	0.225	0.215	0.281	0.192	0.349	0.429	0.322	0.46	–	–	–
LK-2	0.223	0.173	0.161	0.184	0.328	0.284	0.335	0.536	0.809	0.63	1.22	1.2	0.971	1.09	1.04	1.02	0.923	0.264	0.616	1.08
LOU-NH91	0.829	–	0.715	0.656	0.813	0.813	0.796	0.573	0.539	0.515	0.739	0.692	0.738	–	0.695	0.773	0.683	0.811	0.526	0.706
LU99A	0.275	0.294	0.275	0.293	0.826	0.773	0.881	0.425	0.422	0.408	0.508	0.495	0.472	0.897	0.885	0.857	0.833	0.801	0.461	0.528
LXF-289	0.212	0.197	0.187	0.146	0.405	0.39	0.377	0.605	0.599	0.597	1.02	1.06	1.01	0.954	1.06	1.03	1.01	0.388	0.597	1.1
NCI-H23	0.331	0.367	0.586	0.34	0.322	0.303	0.284	0.629	0.521	0.533	0.692	0.741	0.764	0.979	0.85	0.858	0.738	0.294	0.524	0.529
NCI-H322M	0.514	0.548	0.475	0.401	0.691	0.711	0.751	0.434	0.42	0.466	0.857	0.794	0.911	0.848	1.18	1.24	1.16	0.689	0.519	0.7
NCI-H441	0.58	0.873	0.761	0.846	0.256	0.258	0.23	0.194	0.266	0.2	0.671	0.679	0.57	0.466	0.85	1.08	0.755	0.171	0.26	0.629
NCI-H460	0.525	0.796	0.531	0.569	0.436	0.424	0.451	0.148	0.162	0.248	0.534	0.433	0.327	–	–	1.32	1.25	0.242	0.129	0.354
NCI-H520	0.494	0.451	0.43	0.429	0.465	0.513	0.548	0.21	0.256	0.268	0.979	0.927	0.925	1.35	1.4	1.16	1.03	0.328	0.179	0.704
NCI-H647	0.283	0.0553	0.394	0.232	0.358	0.403	0.321	0.288	0.37	0.409	1.08	1.14	0.709	1.52	1.23	1.03	1.16	0.328	0.35	0.995
NCI-H727	0.691	0.646	0.572	0.597	0.982	0.809	0.98	0.516	0.597	0.714	0.648	0.527	0.561	0.333	0.443	0.471	0.426	0.772	0.681	0.646
NCI-H838	0.322	0.318	0.279	0.313	0.425	0.45	0.445	0.239	0.227	0.229	1.01	0.962	1.04	1.39	1.33	1.21	1.18	0.462	0.22	1.07
NCI-H1355	0.607	0.664	0.532	0.518	0.32	0.363	0.373	0.43	0.39	0.421	0.809	0.753	0.822	1	0.969	0.94	0.99	0.335	0.412	0.861
NCI-H1395	0.832	0.793	0.701	0.715	0.741	0.685	0.712	0.624	0.648	0.572	1.02	1.02	1.02	0.972	1.09	1.07	1.14	0.632	0.593	1.19
NCI-H1437	0.497	0.43	0.38	0.414	0.568	0.587	0.537	0.298	0.35	0.307	0.932	0.906	0.716	1.3	1.33	1.07	1.18	0.583	0.355	0.953
NCI-H1651	0.848	1	0.735	0.731	0.649	0.552	0.675	0.525	0.536	0.499	1.12	0.848	0.867	1.24	1.2	1.02	1.04	0.39	0.547	0.917
NCI-H1666	0.595	0.57	0.624	0.593	0.721	0.763	0.713	0.605	0.643	0.632	0.971	1.06	0.993	1.09	0.979	0.938	0.92	0.713	0.676	0.917
NCI-H1734	0.292	0.285	0.256	0.229	0.52	0.554	0.462	0.307	0.328	0.355	0.664	0.748	0.642	1.01	0.907	0.953	0.949	0.37	0.297	0.662
NCI-H1755	0.493	0.578	0.577	0.519	0.764	0.712	0.732	0.473	0.444	0.468	0.918	0.865	0.826	1.01	1.05	1.07	1.03	0.675	0.453	0.925
NCI-H1793	0.311	0.285	0.311	0.303	0.48	0.589	0.542	0.307	0.324	0.302	0.615	0.894	0.621	0.454	0.363	0.483	0.38	0.396	0.271	0.681
NCI-H1915	0.438	0.586	0.504	0.445	0.266	0.253	0.27	0.502	0.535	0.518	1.08	0.991	1.02	0.808	0.793	0.764	0.777	0.245	0.49	1.04
NCI-H1944	0.279	0.254	0.236	0.244	0.435	0.459	0.456	0.272	0.347	0.371	0.849	0.813	0.752	0.992	1.11	1.02	1.08	0.466	0.374	0.78
NCI-H1975	0.958	1.1	0.792	0.695	0.413	0.408	0.388	0.629	0.605	0.725	0.678	0.621	0.642	1.34	1.19	1.34	1	0.333	0.52	0.597
NCI-H1993	0.624	0.652	0.585	0.498	0.737	0.58	0.541	0.647	0.656	0.646	0.645	0.678	0.672	1.07	0.875	–	0.958	0.595	0.757	0.701
NCI-H2009	0.826	0.853	0.781	0.712	0.377	0.339	0.354	0.203	0.231	0.239	1.13	1.13	1.15	1.23	1.31	1.19	1.24	0.316	0.236	1.1
NCI-H2023	0.363	0.43	0.434	0.333	0.216	0.217	0.182	0.343	0.353	0.33	0.592	0.654	0.673	1.36	1.15	1.12	0.988	0.182	0.355	0.576

— the supplement of paper PMC10307832
